According to patent US20100016435A1, “HYBRID MOLECULES HAVING MIXED VITAMIN D RECEPTOR AGONISM AND HISTONE DEACETYLASE INHIBITORY PROPERTIES” (McGill University, priority 2006, published 2010):

Columns and labels:
α-tubulin = experiment: α-Tubulin acetylation in SCC4 cells, Western blot; format: cell-based, human; details: for levels of acetylated alpha-tubulin normalized for total alpha-tubulin: 3 15 nM, 36 or 39 10^−6 or 10^−7M, 6 h or 24 h, FIG. 6C
Source text: (§1) FIG. 4 is an illustration of the HDAC inhibitory activity of 3 in the SCC4 cell line. FIG. 4A is an illustration of a western blot of nuclear and cytoplasmic extracts of SCC4 cells treated with vehicle (−), 1, or 3 alone or in combination, as indicated. The 55 kDa band corresponds to the molecular weight of tubulin. FIG. 4B illustrates a western blot probed with an antibody directed against acetylated histone H4 (AcH4) showing the effects of the treatments described in A on acetylation of histone H4. FIG. 4C illustrates western blots of the effects of treatments described in A on levels of total alpha-tubulin (left) and acetylated alpha-tubulin (right).
FIG. 6 is a comparison of the HDAC inhibitory activities of 1, 3, 6, 36 or 39 as assessed by their effects on acetylation of alpha-tubulin. In A, SCC4 cells were incubated with vehicle or compound 1 (10^−6M), 3 (15 nM), 6 (10^−6M) and 36 (10^−6M), as indicated for 6 h and protein extracts were probed for total α-tubulin (Tub.) or acetylated α-tubulin (AcTub.) by Western blotting. Blots for acetylated alpha-tubulin and total alpha-tubulin are shown. In B, SCC4 cells were incubated with vehicle or compound 3 (15 nM), 6 (10^−6M) or 36 (10^−6M) as indicated for 6 h or 24 h and protein extracts were probed for acetylated α-tubulin (AcTub.) by Western blotting. In C, SCC4 cells were incubated with vehicle or compounds 3 (15 nM), 36 (10^−6 or 10^−7M) or 39 (10^−6 or 10^−7M) as indicated for 6 h or 24 h and protein extracts were probed for total α-tubulin (tub.) or acetylated α-tubulin (AcTub.) by Western blotting.
(§2) In preliminary experiments, TSA-inducible protein acetylation was analyzed in nuclear and cytoplasmic extracts of SCC4 cells treated for 6 h with 1, 3, or 1 and 3 and subsequently probed by Western blotting for protein acetylation using an anti-acetyllysine antibody. […] Effects of 3 on histone acetylation specifically, were confirmed by probing for acetylation of histone H4 (FIG. 4B). […] However, it was not clear whether this corresponded to enhanced expression or acetylation. […] This was confirmed by probing cytoplasmic fractions with an antibody that recognized α-tubulin (FIG. 4C). Calcitriol (1) had no effect on the acetylation of α-tubulin, and none of the treatments had any substantial effect on total α-tubulin expression (FIG. 4C).
SCC4 cells were incubated with vehicle or compound as indicated for 6 h and cytoplasmic protein extracts were probed by Western blotting using a specific antibody for acetylated α-tubulin.

SCC4 cells [1] = experiment: Annexin V staining by FACS (apoptotic cell death); format: cell-based, human; details: after pretreatment with UV light
Description: (§3) FIG. 9 is an illustration of the effects of 1, 3, 1+3, 6 and 36 administered at the concentrations indicated on cell viability in two models. The viability of MCF-7 breast cancer cells was monitored after 24 h of incubation using a trypan blue dye exclusion assay (A).
(§4) The effect of 1, 3, 1+3, 6 and 36 on cell viability was tested in two models. The viability of MCF-7 breast cancer cells was monitored after 24 h of incubation using a trypan blue dye exclusion assay (FIG. 9A). […] The effects of 100 nM 1, 15 nM 3 (TSA), 1 and 3 combined (100 nM/15 nM) and 100 nM 6 (hybrid molecule) on cell viability were tested by screening for induction of markers of apoptotic cell death. Annexin V staining was screened by FACS analysis as in Tavera-Mendoza et al.^26 While all treatments induced modest increases in annexin V staining, apoptosis could be excluded as the major cause of cell death (FIG. 9B).

PC3 = experiment: Antiproliferative activity in PC3 prostate cancer cells; format: cell-based; details: PC3, data not shown
SCC4 cells [2] = experiment: Acidic β-galactosidase activity (marker of autophagy), X-Gal staining and 620 nm measurement; format: cell-based, human; details: for acidic β-galactosidase staining (X-Gal, pH 4.0), cytochemical: qualitative, FIG. 10A
Source text: FIG. 10 is an illustration of the effects of 1, 3, 1+3 and 6 on the induction of acidic β-galactosidase activity, a marker of autophagy (A); FIG. 10 is an illustration of the effects 1, 3, 1+3 and 6 on the levels of β-galactosidase expression as obtained by measuring the indigo cleavage product of X-Gal at 620 nm (B).
Since it was observed that treatment with 1 could enhance cell death by autophagy (ref. 26), the effects of different treatments on the induction of acidic β-galactosidase activity, a marker of autophagy (FIG. 10A) was tested.

HDAC = experiment: Colorimetric HDAC assay with nuclear extracts of SCC4 cells; format: biochemical, human
Description: FIG. 5 is a comparison of the capability of 3 and 6 (20 nM and 200 nM) in blocking deacetylation of a substrate that absorbs at 405 nm in its deacetylated form.
Hybrid molecule 6 was tested for HDAC inhibitory activity using a colorimetric assay as illustrated in FIG. 5. Nuclear extracts of SCC4 cells were incubated with vehicle, 3 or 6 in the presence of substrate for 60 min at 37° C. Following incubation with developer (1 min.), the absorbance was measured at 405 nm.

[3] = tested on: MCF-7 breast cancer cells; experiment: Cell viability, trypan blue dye exclusion assay; format: cell-based; details: 24 h; 6 at 10^−7 or 10^−6M versus 1 at 10^−6M or 1 and 3; FIG. 9A
Description: as §3, §4

Du145 = experiment: Antiproliferative activity in Du145 prostate cancer cells; format: cell-based; details: Du145, data not shown
SCC4 cells [4] = experiment: Antiproliferative activity in SCC4 cells
Description: Tissue culture media was changed daily and fresh 1, 6 or vehicle were added.

human VDR = molecular target: T1, human VDR (Homo sapiens, UniProt P11473); experiment: Reporter gene assay (VDRE-luciferase) in transiently transfected COS7 cells; format: cell-based
T1 construct: expressed in transfected cells; host or cells: COS7
T1 sequence (P11473 1-427): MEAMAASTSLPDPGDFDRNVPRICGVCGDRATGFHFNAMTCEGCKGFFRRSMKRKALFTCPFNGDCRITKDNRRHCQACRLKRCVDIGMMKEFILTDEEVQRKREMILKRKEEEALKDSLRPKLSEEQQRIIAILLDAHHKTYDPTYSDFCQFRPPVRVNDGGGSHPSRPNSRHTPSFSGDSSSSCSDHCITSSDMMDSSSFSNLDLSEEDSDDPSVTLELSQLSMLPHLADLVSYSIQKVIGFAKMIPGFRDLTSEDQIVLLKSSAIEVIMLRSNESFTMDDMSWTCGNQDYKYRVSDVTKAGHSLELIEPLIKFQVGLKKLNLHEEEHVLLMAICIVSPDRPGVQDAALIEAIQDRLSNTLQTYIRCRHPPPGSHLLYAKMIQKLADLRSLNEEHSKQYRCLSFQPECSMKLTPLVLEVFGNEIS
Description: FIG. 2 is an illustration of the vitamin D receptor agonist activity of 6 using a reporter gene assay in transiently transfected COS7 cells.
Hybrid molecule 6 was tested for calcitriol agonist activity using a reporter gene assay under standard conditions.^25,26 COS7 cells were transiently co-transfected with a plasmid expression vector for the human VDR, a plasmid vector expressing bacterial β-galactosidase from a constitutively active promoter (as an internal control for transfection efficiency), and a vector containing a luciferase reporter gene, under control of a previously described synthetic promoter composed of three high affinity VDREs (Vitamin D Response Elements) placed immediately upstream of a truncated promoter region from the herpes simplex virus thymidine kinase gene.^25 Cells were left overnight in the presence of DNA and transfection reagent (lipofectamine). The media were changed and cells were incubated in fresh media containing either vehicle (DMSO), 1 (100 nM), 3 (15 nM), 1 and 3 combined (100 nM/15 nM) or 6 (100 nM), and incubated a further 36 h.

SCC25 cells [5] = details: cited from earlier work
SCC4 cells [6] = details: cited from earlier work
SCC25 cells [7] = experiment: Antiproliferative activity in SCC25 cells; format: cell-based; details: 1 at 1 nM or 100 nM; 3 15 nM; combination 3 with 100 nM 1; FIG. 7B
Source text: FIG. 7 is an illustration of the antiproliferative activities of 1 and 3, individually or in combination, in SCC4 cells (A) or in SCC25 cells (B) at the concentrations indicated.

SCC4 cells [8] = experiment: Cell cycle distribution by FACS analysis; format: cell-based, human; details: 100 nM 1, or 100 nM 1 and 15 nM 3; 72 h
Description: FIG. 11 is an illustration of the results obtained by fluorescence-activated cell sorting (FACS) analysis on the distribution of SCC4 cells in the cell cycle following treatment with vehicle (−), 1, or 1 and 3 together at the concentrations indicated.
The combined effects of 1 and 3 on the distribution of SCC4 cells in the cell cycle were assessed by FACS analysis (FIG. 11). Cells were treated with vehicle, 100 nM 1, or a combination of 100 nM 1 and 15 nM 3 for 72 h, as indicated.

SCC4 cells [9] = experiment: Protein acetylation in nuclear and cytoplasmic extracts, Western blot with anti-acetyllysine antibody; format: cell-based, human; details: 6 h
Source text: as §1, §2

SCC4 cells [10] = experiment: Immunocytochemical and morphological analysis (mitotic catastrophe); format: cell-based, human
Source text: FIG. 12 is an illustration of the immunocytochemical analysis of the effects of 1, 3, or 1 and 3 combined on SCC4 cells (A). […] Both phenotypes are characteristics of mitotic catastrophe. The lower panels (B) show cytoplasmic bridges between SCC4 cells treated with 1 and 3, consistent with the formation of the tubulin bridges seen above in A.
Assembly into microtubules is regulated by acetylation. […] Previous studies have shown that microtubule stabilizing agents can induce mitotic catastrophe (ref. 30). […] The formation of intercellular microtubular structures was consistent with observations in the light microscope of numerous intercellular bridges in cells treated with both 1 and 3 (FIG. 12B, arrows), but not in other treatment groups (not shown).

histone H4 = experiment: Histone H4 acetylation, Western blot; format: cell-based, human; details: SCC4 cells, 6 h
Source text: as §1, §2

Structure (SMILES): C[C@H](CCCCC(=O)NO)[C@H]1CC[C@H]2/C(=C/C=C3C[C@@H](O)C[C@H](O)C3)CCC[C@]12C [compound 39]
- levels of acetylated alpha-tubulin normalized for total alpha-tubulin (α-tubulin): observed only in cells treated with 3

Structure (SMILES): CC(/C=C/C(=O)NO)=C\[C@@H](C)[C@H]1CC[C@H]2/C(=C/C=C3C[C@@H](O)C[C@H](O)C3)CCC[C@]12C [compound 6, (2E,4E,6R)-6-[(1R,3R,7E,17β)-1,3-dihydroxy-9,10secoestra-5,7-dien-17-yl]-N-hydroxy-4-methylhepta-2,4-dienamide]
- annexin V staining versus 3, 1 or 1+3 (SCC4 cells [1]): substantially higher levels of apoptosis
- tubulin acetylation (α-tubulin; 1 μM, 6 h, FIG. 6A): marked tubulin acetylation
- tubulin acetylation (α-tubulin; after 24 h, FIG. 6B): remains elevated
- antiproliferative activity (PC3): similar
- levels of autophagy (SCC4 cells [2]; cytochemical and quantitative analysis): elevated levels of autophagy
- increase in β-galactosidase expression versus 1 or 1+3 (SCC4 cells [2]; indigo cleavage product of X-Gal at 620 nm, FIG. 10B): ~30%
- acidic β-galactosidase staining (X-Gal, pH 4.0), cytochemical (SCC4 cells [2]): higher percentage of cells that stained intensely
- fold less potent than TSA (3) (HDAC; HDAC inhibition): about 10 fold
- inhibiting HDAC activity, compared with 3 (HDAC; equimolar concentrations (20 nM), 60 min at 37° C.): less effective
- cell death (viability) [3]: markedly more cell death
- antiproliferative activity (Du145): similar
- inhibition of SCC4 proliferation (SCC4 cells [4]; 96 h, media and compound changed daily, FIG. 8A): greater efficacy than 1
- reporter gene activity (calcitriol agonist activity) (human VDR; COS7, 36 h, 1 100 nM, 3 15 nM, 6 100 nM, not normalized): essentially identical to that of 1

Structure (SMILES): C=C1/C(=C\C=C2/CCC[C@@]3(C)C2CCC3[C@H](C)/C=C/C=C/C(O)(CC)CC)C[C@@H](O)C[C@@H]1O (stereo partly shown) [compound 4, EB1089]
- expression from the internal control plasmid (β-galactosidase) (human VDR; COS7 cells): modestly enhanced expression

Structure (SMILES): C[C@H](CCCC(=O)NO)[C@H]1CC[C@H]2/C(=C/C=C3C[C@@H](O)C[C@H](O)C3)CCC[C@]12C [compound 36]
- levels of acetylated alpha-tubulin normalized for total alpha-tubulin (α-tubulin): observed only in cells treated with 3
- tubulin acetylation (α-tubulin; 10^−6 M, 6 or 24 h, FIG. 6B): no effect

Structure (SMILES): C=C1/C(=C\C=C2/CCC[C@@]3(C)C2CCC3[C@H](C)CCCC(C)(C)O)C[C@@H](O)C[C@@H]1O (stereo partly drawn) [compound 1, 1α,25-Dihydroxyvitamin D3]
- acetylation of α-tubulin (α-tubulin; cytoplasmic fractions, FIG. 4C): no effect
- cell cycle arrest (SCC25 cells [5]): G0/G1 arrest
- acidic β-galactosidase staining (X-Gal, pH 4.0), cytochemical (SCC4 cells [2]): generally enhanced
- resistance of SCC4 to antiproliferative effects (SCC4 cells [6]): resistant
- SCC25 proliferation / sensitivity (SCC25 cells [7]): relatively more sensitive
- proportion of cells in G1 (SCC4 cells [8]): augmented
- proportion of cells in G2/M (SCC4 cells [8]): augmented
- proportion of cells in S phase (SCC4 cells [8]): substantially diminished
- levels of a product of ~70 kDa (SCC4 cells [9]; cytoplasmic extracts): modestly but consistently enhanced
- acetylation of low molecular weight nuclear proteins (SCC4 cells [9]; nuclear extracts): no effect
- cell morphology (SCC4 cells [10]; FIG. 12): did not differ from control cells
- induction of mitotic catastrophe (SCC4 cells [10]; SCC4 cells): not 1 or 3 alone
- SCC4 proliferation (SCC4 cells [4]; 1 nM or 100 nM 1, alone or with 15 nM 3, FIG. 7A): modest effects
- histone H4 acetylation (histone H4): little effect
